From ChEMBL document CHEMBL5260846, “Emerging targets and potential therapeutic agents in non-alcoholic fatty liver disease treatment” (Eur J Med Chem, 2020)

Tests used:
[1] = molecular target: C-C chemokine receptor type 5 (Homo sapiens, UniProt P51681); assay: Antagonist at CCR5 (unknown origin) assessed as inhibitory constant
[2] = test system: Human immunodeficiency virus 1; assay: Antiviral activity against M tropic HIV-1 Ba-L infected in human HeLa-MAGI-CCR5 cells assessed as inhibition of viral replication; type: functional, organism-based; settings: Human immunodeficiency virus 1, Ba-L
[3] = molecular target: T1, Peroxisome proliferator-activated receptor delta (Homo sapiens, UniProt Q03181); assay: Agonist activity at PPARdelta (unknown origin)
T1 sequence (Q03181 whole entry): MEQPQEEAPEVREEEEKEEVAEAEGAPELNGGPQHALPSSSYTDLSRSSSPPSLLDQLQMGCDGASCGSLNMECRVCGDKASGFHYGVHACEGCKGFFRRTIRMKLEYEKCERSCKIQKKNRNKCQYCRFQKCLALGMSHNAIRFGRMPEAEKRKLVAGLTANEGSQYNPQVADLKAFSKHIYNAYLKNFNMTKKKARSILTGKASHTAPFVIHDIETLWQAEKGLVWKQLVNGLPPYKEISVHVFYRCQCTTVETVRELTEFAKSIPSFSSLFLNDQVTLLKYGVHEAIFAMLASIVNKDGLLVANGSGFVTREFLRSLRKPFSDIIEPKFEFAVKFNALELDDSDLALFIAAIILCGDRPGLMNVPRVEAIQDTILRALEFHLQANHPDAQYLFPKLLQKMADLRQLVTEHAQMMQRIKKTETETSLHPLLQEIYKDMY

[4] = test system: Hepatocyte; assay: Anti-fibrosis effect in CCl4 induced lipid peroxidation in rat hepatocytes by measuring MDA formation incubated for 1 hr by TBARS method; type: functional, cell-based
[5] = molecular target: T2, Peroxisome proliferator-activated receptor alpha (Mus musculus, UniProt P23204); assay: Agonist activity at mouse PPARalpha
T2 sequence (P23204 whole entry): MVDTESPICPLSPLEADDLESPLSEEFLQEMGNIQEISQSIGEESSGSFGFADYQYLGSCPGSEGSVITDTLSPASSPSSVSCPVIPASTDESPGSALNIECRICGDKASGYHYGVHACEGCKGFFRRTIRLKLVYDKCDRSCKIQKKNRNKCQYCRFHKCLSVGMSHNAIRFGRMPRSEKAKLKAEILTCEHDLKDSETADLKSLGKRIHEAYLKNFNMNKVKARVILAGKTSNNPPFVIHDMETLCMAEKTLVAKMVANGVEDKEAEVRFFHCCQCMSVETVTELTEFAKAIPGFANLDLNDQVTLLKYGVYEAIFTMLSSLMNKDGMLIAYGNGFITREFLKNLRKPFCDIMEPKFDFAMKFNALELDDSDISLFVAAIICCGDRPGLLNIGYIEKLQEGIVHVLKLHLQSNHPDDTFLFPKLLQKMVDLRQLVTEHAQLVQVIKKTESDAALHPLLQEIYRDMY

[6] = molecular target: T3, Peroxisome proliferator-activated receptor alpha (Homo sapiens, UniProt Q07869); assay: Agonist activity at PPARalpha (unknown origin) assessed as transcriptional activation
T3 sequence (Q07869 whole entry): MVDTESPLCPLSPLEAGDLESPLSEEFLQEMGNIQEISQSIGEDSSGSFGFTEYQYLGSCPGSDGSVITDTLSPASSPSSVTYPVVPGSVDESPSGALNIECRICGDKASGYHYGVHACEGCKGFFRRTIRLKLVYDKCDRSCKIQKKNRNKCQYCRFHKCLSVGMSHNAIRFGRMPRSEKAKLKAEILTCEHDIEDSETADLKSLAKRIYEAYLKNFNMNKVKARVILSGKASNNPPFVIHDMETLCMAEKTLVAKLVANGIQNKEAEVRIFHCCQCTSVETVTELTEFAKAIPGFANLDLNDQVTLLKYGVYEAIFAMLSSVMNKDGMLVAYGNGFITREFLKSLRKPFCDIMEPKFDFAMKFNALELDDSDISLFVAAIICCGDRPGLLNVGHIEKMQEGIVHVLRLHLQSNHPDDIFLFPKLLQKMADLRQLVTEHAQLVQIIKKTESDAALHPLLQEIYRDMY

[7] = molecular target: T4, Peroxisome proliferator-activated receptor gamma (Homo sapiens, UniProt P37231); assay: Agonist activity at PPARgamma (unknown origin) assessed as transcriptional activation
T4 sequence (P37231 whole entry): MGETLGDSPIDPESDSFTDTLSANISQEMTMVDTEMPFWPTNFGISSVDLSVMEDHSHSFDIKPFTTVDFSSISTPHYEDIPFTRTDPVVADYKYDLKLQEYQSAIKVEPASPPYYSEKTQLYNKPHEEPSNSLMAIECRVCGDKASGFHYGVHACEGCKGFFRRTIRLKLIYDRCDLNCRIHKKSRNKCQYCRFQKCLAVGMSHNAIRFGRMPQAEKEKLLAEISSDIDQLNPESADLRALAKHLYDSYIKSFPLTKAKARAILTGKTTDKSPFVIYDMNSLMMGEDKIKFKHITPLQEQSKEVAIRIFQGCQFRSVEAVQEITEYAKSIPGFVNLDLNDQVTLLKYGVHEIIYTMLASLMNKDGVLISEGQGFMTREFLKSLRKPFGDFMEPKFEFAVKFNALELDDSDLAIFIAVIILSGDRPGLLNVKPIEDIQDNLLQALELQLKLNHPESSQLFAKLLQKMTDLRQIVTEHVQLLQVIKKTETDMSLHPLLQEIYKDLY

[8] = molecular target: T3, Peroxisome proliferator-activated receptor alpha; assay: Agonist activity at PPARalpha (unknown origin)
[9] = molecular target: T3, Peroxisome proliferator-activated receptor alpha; assay: Binding affinity to PPARalpha (unknown origin)
[10] = molecular target: T3, Peroxisome proliferator-activated receptor alpha; assay: Agonist activity at PPARalpha in human HepG2 cells; type: cell-based

C-C chemokine receptor type 5, sequence (P51681 whole entry): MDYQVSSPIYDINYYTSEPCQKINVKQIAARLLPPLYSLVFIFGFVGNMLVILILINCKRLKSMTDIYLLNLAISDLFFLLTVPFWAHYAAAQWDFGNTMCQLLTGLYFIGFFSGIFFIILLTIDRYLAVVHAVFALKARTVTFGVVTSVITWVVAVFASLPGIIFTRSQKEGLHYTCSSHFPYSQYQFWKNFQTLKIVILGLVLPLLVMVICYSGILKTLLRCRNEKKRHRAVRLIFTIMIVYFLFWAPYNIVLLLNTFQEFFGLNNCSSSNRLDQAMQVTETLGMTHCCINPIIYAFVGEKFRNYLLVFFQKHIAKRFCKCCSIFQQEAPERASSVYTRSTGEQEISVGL

`Cc1ccc(-c2ccc3c(c2)C=C(C(=O)Nc2ccc(C[N+](C)(C)C4CCOCC4)cc2)CCC3)cc1` gave a Ki [1] of 0.0011 µM, an EC50 [2] of 0.0012 µM and an EC90 [2] of 0.0057 µM.

With `CCCc1c(OCCCOc2ccc(OCC(=O)O)cc2)ccc(C(C)=O)c1O` the EC50 [3] was 0.05 µM.

For `O=C(/C=C/c1ccc(O)c2c1[C@@H](C(=O)O[C@H](Cc1ccc(O)c(O)c1)C(=O)O)[C@H](c1ccc(O)c(O)c1)O2)O[C@H](Cc1ccc(O)c(O)c1)C(=O)O`, the IC50 [4] was 2750 µM.

With `CC(C)(Oc1ccc(CCNC(=O)c2ccc(Cl)cc2)cc1)C(=O)O` [BEZAFIBRATE] the EC50 [5] was 50 µM.

In the case of `CCOC(=O)C(C)(C)Oc1ccc(Cl)cc1` [CLOFIBRATE], the EC50 [5] is reported as 55 µM.

For `CSc1ccc(C(=O)/C=C/c2cc(C)c(OC(C)(C)C(=O)O)c(C)c2)cc1` [ELAFIBRANOR], the EC50 [6] was 0.045 µM and the EC50 [7] was 0.175 µM.

`Cc1ccc(C)c(OCCCC(C)(C)C(=O)O)c1` [GEMFIBROZIL] gave an EC50 [8] of 15.2 µM.

For `COc1ccc(Oc2cc(N(C)CCOc3ccc(CC4SC(=O)NC4=O)cc3)ncn2)cc1` (configuration not stated) [LOBEGLITAZONE], the EC50 [9] was 20 µM.

Work on `CCO[C@@H](Cc1ccc(OCCn2c(C)ccc2-c2ccc(SC)cc2)cc1)C(=O)O` [SAROGLITAZAR] yielded an EC50 [10] of 0.65 pM.
